According to US20240041825A1, “SAROGLITAZAR AND MYRISTIC ACID FOR USE IN THE TREATMENT OF FOCAL SEGMENTAL GLOMERULOSCLEROSIS (FSGS)” (Delta 4 GmbH, priority 2020, published 2024):

Test system: Adriamycin-induced FSGS in BALB/c mice
Test: Adriamycin induced nephropathy mouse model of FSGS (UPCR, UACR, histology)
Assay type: in vivo
Conditions: Experiment 1, FIG. 5; chow with 25 mg/kg saroglitazar and/or 625 mg/kg myristic acid from day 2
Excerpt: For biological testing of the shortlisted compounds, we chose accepted mouse models of FSGS such as the adriamycin induced nephropathy or miR-193a-overexpressing mice which suffer from FSGS due to suppression of Wilms' tumor 1 (WT1) gene (Gebeshuber et al., 2013). All animal experiments and handling were in accordance with the Austrian law for protection of animals and approved by the animal ethics committee of the Austrian ministry for science and research.
Adriamycin-dependent nephropathy (active compound: doxorubicin) was induced by tail vein injection accepted doses of approx. 9 mg/kg mouse in 10 weeks old BALB/c mice. Control mice were injected with 0.9% saline. At least 6 mice were analyzed per group. Mice were monitored daily for signs of pain, altered movement, or reduced food uptake and sacrificed by cervical dislocation. […]
Urinary albumin levels were assessed by ELISA, urinary total protein and urinary creatinine levels were measured on the Roche Cobas system, using routine laboratory kits. Urinary protein/creatinine (UPCR) ratio and urinary albumin/creatinine ratio (UACR) were assessed at different time points. Weight and physical fitness scores were monitored on a daily basis. […]
Spot urine was collected every week and Creatinine and protein levels were measured.
Urinary albumin was measured by ELISA. […]

| Structure (SMILES) | effect on proteinuria (UPCR) versus control, in words |
| --- | --- |
| CCO[C@@H](Cc1ccc(OCCn2c(C)ccc2-c2ccc(SC)cc2)cc1)C(=O)O [saroglitazar] | able to ameliorate proteinuria to a certain extent |
| CCCCCCCCCCCCCC(=O)O [Myristic acid] | did not reduce UPCR |
